Results taken from PMC8541546, “Identification of HLA-A2-Restricted Mutant Epitopes from Neoantigens of Esophageal Squamous Cell Carcinoma” (Vaccines, 2021).

What was measured:
[1] = target: T1, peptide/HLA-A*0201 complex (Homo sapiens, UniProt P04439, D140Y/D185E/D98H/E176V/E277Q/G131W/G231S/I119V/I121R/I166T/I218V/L300P/L318F/N151K/N90K/P208A/P217A/Q86G/Q94H/R138H/R169H/T345S); assay: peptide/MHC complex stabilization assay on T2A2 cells; assay type: binding; conditions: T2A2 cells pulsed with 50 μg/mL peptide and 3 μg/mL β2-M 18 h, BFA 1 h; MFI at 0, 2, 4, 6 h; time of half losing MFI of 0 h
T1 construct: T2A2 cells (TAP-deficient HLA-A2 molecules overexpressing, cultured in IMDM medium); β2-M from Merck; host or cells: T2A2 cells
Experimental: For the stabilization test, T2A2 cells were pulsed with 50 μg/mL mutant peptide and 3 μg/mL β2-Microglobulin (β2-M, Merck, Kenilworth, NJ, USA) in IMDM (serum-free) medium for 18 h. After three times washing, free peptides were removed and brefeldin A (BFA, 10 μg/mL, BD Bioscience, San Diego, CA, USA) was added. BFA was removed after 1 h impeding, and the cells were incubated for additional time. Finally, T2A2 was marked with anti-human HLA-A2 PE-Cyanine7 for 30 min, then analyzed by FACS Calibur (BD Bioscience, USA). MFI of 0 h was set as 100%, and the time of half losing MFI of 0 h defined the dissociation complex 50 (DC50). DC50 was computed as follows: (MFI of 0 h-MFI of (2, 4, or 6 h))/MFI of 0 h × 100%.

[2] = target: T2, HLA-A*0201 molecule (Homo sapiens, UniProt P04439, D140Y/D185E/D98H/E176V/E277Q/G131W/G231S/I119V/I121R/I166T/I218V/L300P/L318F/N151K/N90K/P208A/P217A/Q86G/Q94H/R138H/R169H/T345S); assay: T2A2 cell-binding assay; conditions: T2A2 cells; FI = (MFI of peptide - MFI of control without peptide)/MFI of control without peptide; anti-HLA-A2 BB7.2, flow cytometry; FI > 1 = high binding affinity
T2 construct: T2A2 cells (TAP-deficient HLA-A2 molecules overexpressing, cultured in IMDM medium); host or cells: T2A2 cells
Experimental: The binding affinity of neoepitope to the MHC molecule and the stable neoepitope/MHC complex are critical for inducing T cell immune response, so we first performed a T2A2 cell-binding assay and stabilization assay. The T2A2 cell-binding assay was measured as in our previous study. The binding affinity was computed as follows: fluorescence index (FI) = (mean fluorescence intensity (MFI) of peptide group-MFI of the dissolved buffer without peptide group)/MFI of the dissolved buffer without peptide group.

[3] = test system: KYSE140-MUT cells; assay: Intracellular cytokine staining (IFN-γ) of CTLs from immunized Tg mice; assay type: in vivo, HLA-A2.1/K^b Tg mice; conditions: 100 μg/mouse s.c. with CpG ODN 1826 once a week for three weeks; spleen lymphocytes re-stimulated with MUT peptide; KYSE140-MUT target cells; n = 5 per group
Experimental: To investigate whether neoepitopes could induce a peptide-specific T cell response in vivo, HLA-A2.1/K^b Tg mice were used and immunized according to the procedure de-scribed previously. In brief, mutant peptides or WH-mutant peptides (100 μg per mouse) with CpG-ODN 1826 (30 μg per mouse) were injected s.c. in the back of HLA-A2.1/K^b Tg mice (five mice per group, randomly grouped) once a week for three weeks. The normal saline (NS) group was immunized s.c. only with CpG ODN 1826 (30 μg/mouse) once a week for three weeks. Five days after the last injection, spleen lymphocytes were isolated and cultured at the concentration of 5 × 10^6 cells/mL in RPMI 1640 medium. These cells were induced by the same mutant peptides (10 μg/mL) that were used for in vivo stimulation and mIL-2 (30 U/mL) for a week. Intracellular cytokine staining assay (ICS) and cytotoxic assay (E: T ratios = 20:1, 40:1, 80:1) were performed after a week induced in vitro [22].
To test the MUT peptides stimulation of CTL response in vivo, peptide-specific T cells induced from Tg mice were co-cultured with tumor cell lines transfected with WT or MUT minigenes, as described in the in vitro assay. […] Intracellular cytokines were marked by anti-mouse IFN-γ or anti-mouse granzyme B, respectively, and analyzed by flow cytometry (BD FACSCelesta™, USA).

Sequence | DC50 (dissociation complex 50) [1] [h] | FI (fluorescence index) [2] | IFN-γ secretion of CTLs (IFN-γ+ CD8+ T cells) [3] [%]
LLGPNSFEV [TP53-R267P] | >6 | 1.81 | 1.1
ILWRQDINL [NFE2L2-D13N] | >6 | 1.67 | 1.5
QVTDFLAPL [PCLO-E4090Q] | >4 | 1.85 | 
